Source: US9365572B2, “PI3K and/or mTOR inhibitor” (XUANZHU PHARMA CO., LTD., priority 2012, dated 2016)
Structures can show the parent of a compound that is named as a salt.

Columns and labels:
[1] = target: PI3Kα (Homo sapiens (Human), UniProt P42336); assay: PI3Kα enzymatic assay; format: biochemical; details: read-out: In vitro enzymatic activity (IC50) PI3Kα
Description: (§1) Assay 1-2: In Vitro Enzymatic Inhibitory Activity of the Present Compound
(§2) • 1.1 1-fold kinase buffer: 50 mM HEPES, pH 7.5, 10 mM MgCl2, 1 mM EGTA, 3 mM MnCl2, 0.01% Tween-20, 2 mM DTT; • 1.2 4-fold kinase solution: mTOR kinase was added to 1-fold kinase buffer to form 4-fold kinase solution with a final concentration of 2.5 nM; • 1.3 2-fold substrate and ATP solution: the substrate 4EBP1 and ATP were added to 1-fold kinase buffer to form 2-fold substrate solution with final concentration of 50 nM of 4EBP1 and 10.8 μM of ATP; • 1.4 4-fold test substance solutions: 100-fold test substance solutions in different gradient concentrations were formulated with 100% DMSO, and diluted by 25 folds with 1-fold kinase buffer to form 4-fold test substance solutions in different gradient concentrations. • 1.5 Preparation of detection solution: a detection solution containing 2-fold final concentrations of EDTA and 4EBP1 phosphorylated antibody was formulated, wherein the final concentration for EDTA was 8 mM, and the final concentration for the 4EBP phosphorylated antibody was 2 nM. 2. Procedure • 2.1 To each well of a 384-well plate was added 2.5 μL of the 4-fold test substance solutions in gradient concentrations. The replication was made. • 2.2 To each well was added 2.5 μL of 4-fold kinase solution, and then the plate was incubated for 10 mins; • 2.3 Then to each well was added 5 μL/of 2-fold substrate and ATP solution, and then the plate was incubated at room temperature for 1 hour; • 2.4 Finally, 10 μL of the detection solution was added to terminate the reaction. After 60 mins, the data Lance signal ([…]) was read from Envision. 3 Data treatment Inhibition rate (%)=[…] • wherein: • maximum refers to the reading at the DMSO control well. • minimum refers to the reading at the control well without kinase, • The data was input into Graphpad Prism 5.0 to plot and obtain the curve and IC50 value. PI3Kα Enzymatic Assay 1. […] After 15 mins, the data Lance signal ([…]) was read from Envision. 3 Data treatment Inhibition rate (%)=100−(sample value−minimum)/(maximum−minimum)×100 • wherein: • maximum refers to the reading at the control well without kinase, • minimum refers to the reading at the DMSO control well, • The data was input into Graphpad Prism 5.0 to plot and obtain the curve and IC50 value. […]

[2] = target: mTOR (Homo sapiens (Human), UniProt P42345); assay: mTOR enzymatic assay; format: biochemical; details: read-out: In vitro enzymatic activity (IC50) mTOR
Description: as §1
1. Preparation of Agents:
as §2

[3] = system: U87MG; assay: In vitro cytological inhibitory activity (XTT); format: cell-based; details: Homo sapiens, U-87 MG, 72 hrs
Description: U87MG: Human brain astrocytoblast cell line;
(§3) 1. Preparation of agents and compounds:
(§4) • 1.1 Preparation of phosphoric acid buffering solution (PBS): 8 g NaCl, 0.2 g KCl, 1.44 g Na2HPO4 and 0.24 g KH2PO4 were weighed and added to 800 mL ultrapure water. The mixture was adjusted to pH=7.4, and ultrapure water was added to the metered volume of IL. Then the autoclaving was conducted for 20 mins. • 1.2 Preparation of XTT detection working solution: 100 mg (2,3-Bis-(2-methoxy-4-nitro-5-sulfophenyl)-2H-tetrazolium-5-carboxanilide); 2,3-bis(2-methoxy-4-nitro-5-sulfophenyl)-5-[(phenylamino)carbonyl]-2H-tetrazolium hydroxide (XTT) powder was weighed, and dissolved under protection from light 300 mL of phenol red-free and serum-free RPMI1640 culture, which had been warmed up to 50° C. The resulting mixture was filtered, packaged and used immediately or in one week. The complete process was conducted under protection from light. • 1.3 Preparation of the test compound • Preparation of the stock solution of the test compound: The test compound powder was dissolved in DMSO in a concentration of 10 mM. • Preparation of the gradiently diluted solution of the test compound: 10 mM of the stock solution of the test compound was successively and gradiently diluted with DMSO by 4 folds for 10 concentrations. […]

[4] = system: A549; assay: In vitro cytological inhibitory activity (XTT); format: cell-based; details: Homo sapiens, 72 hrs
Description: A549: Human lung cancer cell line;
as §3, §4

[5] = system: PC-3; assay: In vitro cytological inhibitory activity (XTT); format: cell-based; details: Homo sapiens, 72 hrs
Description: PC-3: Human prostatic carcinoma cell line;
as §3, §4

[6] = system: SKOV-3; assay: In vitro cytological inhibitory activity (XTT); format: cell-based; details: Homo sapiens, SK-OV-3, 72 hrs
Description: SKOV-3: Human ovarian cancer cell line;
as §3, §4

[7] = In vivo pharmacokinetics assay in rat; details: male, SD, plasma, rats; for Vd: read-out: Vss
Text: Test animals: male SD rats, weighing 190-260 g. Intravenous bolus injection (I.V.) and gavage (P.O.) administrations were each applied to three rats.
Compound 5, for both I.V and P.O administrations, was solubilized with a solution of 30% DMF+50% PEG400+20%(0.9% sodium chloride injection)(the pH being adjusted with a suitable amount of an aqueous hydrochloric acid solution (2 mol/L)).
Compound 6, for both I.V and P.O administrations, was solubilized with a solution of 30% DMF+30% PEG400+5%0.1 mol/lhydrochloric acid+[…] normal saline.
Compound 30 for I.V administration was solubilized with a solution of 30% DMF+50% PEG400+20% normal saline; Compound 30 for P.O administration was solubilized with a solution of 5% DMSO+30% polyoxyethylene castor oil+65% normal saline.
Compound 30 hydrochloride for I.V administration was solubilized with a solution of 30% DMF+50% PEG400+20% sterile water for injection.
I.V blood sampling time point: 0.083 h, 0.25 h, 0.5 h, 1 h, 2 h, 4 h, 6 h, 8 h and 24 h after the administration, P.O blood sampling time point: 0.17 h, 0.5 h, 1 h, 2 h, 4 h, 6 h, 8 h and 24 h after the administration.
About 100 μl of whole blood was taken at each time point, anticoagulated with heparin sodium, and centrifugated at 8,000 rpm in a high-speed centrifuge for 6 minutes to separate plasma, and the resulting plasma was frozen at −80° C. in a refrigerator.
The plasma sample was treated with a liquid-liquid extraction. 20 μL of plasma was taken. A solution of BEZ-235 (Novartis, Phase II) in tertbutylmethylether (600 μL, 10 ng/mL) was added as internal standard. The mixture was rotated vertically at 1500 rpm for 10 mins and then centrifugated at 12000 rpm for 5 mins. 400 μL of the supernate was taken and dried under nitrogen. The dried substance was redissolved in 200 μL methanol:water (7:3, V/V) for LC-MS/MS analysis.
Calculation Absolute bioavailability F%=[AUC]last (P.O)*Dose(I.V)/[AUC]last (I.V)*Dose(P.O)

Chain of PI3Kα (P42336 whole entry): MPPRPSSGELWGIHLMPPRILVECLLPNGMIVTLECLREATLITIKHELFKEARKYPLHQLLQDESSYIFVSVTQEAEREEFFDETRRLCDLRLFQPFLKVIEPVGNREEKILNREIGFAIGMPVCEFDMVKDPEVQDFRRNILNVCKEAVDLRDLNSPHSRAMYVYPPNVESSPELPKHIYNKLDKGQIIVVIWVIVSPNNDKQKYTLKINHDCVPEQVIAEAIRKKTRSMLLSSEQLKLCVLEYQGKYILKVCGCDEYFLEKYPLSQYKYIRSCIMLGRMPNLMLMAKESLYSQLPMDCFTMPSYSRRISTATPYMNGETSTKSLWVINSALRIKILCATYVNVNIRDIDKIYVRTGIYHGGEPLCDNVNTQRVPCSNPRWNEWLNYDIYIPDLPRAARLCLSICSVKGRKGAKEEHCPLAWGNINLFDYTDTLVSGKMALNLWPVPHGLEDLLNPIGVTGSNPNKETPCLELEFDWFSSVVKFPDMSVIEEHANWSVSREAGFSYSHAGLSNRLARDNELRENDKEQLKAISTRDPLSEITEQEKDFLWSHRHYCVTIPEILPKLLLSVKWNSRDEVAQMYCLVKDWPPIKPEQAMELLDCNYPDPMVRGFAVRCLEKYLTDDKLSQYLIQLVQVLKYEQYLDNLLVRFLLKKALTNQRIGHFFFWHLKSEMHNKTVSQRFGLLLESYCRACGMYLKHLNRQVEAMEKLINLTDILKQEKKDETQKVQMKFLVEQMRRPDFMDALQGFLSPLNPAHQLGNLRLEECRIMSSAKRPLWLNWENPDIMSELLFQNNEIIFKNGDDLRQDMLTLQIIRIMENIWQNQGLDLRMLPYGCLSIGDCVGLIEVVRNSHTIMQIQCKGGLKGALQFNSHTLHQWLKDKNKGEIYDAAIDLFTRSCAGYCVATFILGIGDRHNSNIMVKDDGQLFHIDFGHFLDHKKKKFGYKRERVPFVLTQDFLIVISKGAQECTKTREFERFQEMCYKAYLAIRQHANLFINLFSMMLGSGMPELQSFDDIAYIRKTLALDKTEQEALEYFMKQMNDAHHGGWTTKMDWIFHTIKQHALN
Chain of PI3Kα (P27986 whole entry partner): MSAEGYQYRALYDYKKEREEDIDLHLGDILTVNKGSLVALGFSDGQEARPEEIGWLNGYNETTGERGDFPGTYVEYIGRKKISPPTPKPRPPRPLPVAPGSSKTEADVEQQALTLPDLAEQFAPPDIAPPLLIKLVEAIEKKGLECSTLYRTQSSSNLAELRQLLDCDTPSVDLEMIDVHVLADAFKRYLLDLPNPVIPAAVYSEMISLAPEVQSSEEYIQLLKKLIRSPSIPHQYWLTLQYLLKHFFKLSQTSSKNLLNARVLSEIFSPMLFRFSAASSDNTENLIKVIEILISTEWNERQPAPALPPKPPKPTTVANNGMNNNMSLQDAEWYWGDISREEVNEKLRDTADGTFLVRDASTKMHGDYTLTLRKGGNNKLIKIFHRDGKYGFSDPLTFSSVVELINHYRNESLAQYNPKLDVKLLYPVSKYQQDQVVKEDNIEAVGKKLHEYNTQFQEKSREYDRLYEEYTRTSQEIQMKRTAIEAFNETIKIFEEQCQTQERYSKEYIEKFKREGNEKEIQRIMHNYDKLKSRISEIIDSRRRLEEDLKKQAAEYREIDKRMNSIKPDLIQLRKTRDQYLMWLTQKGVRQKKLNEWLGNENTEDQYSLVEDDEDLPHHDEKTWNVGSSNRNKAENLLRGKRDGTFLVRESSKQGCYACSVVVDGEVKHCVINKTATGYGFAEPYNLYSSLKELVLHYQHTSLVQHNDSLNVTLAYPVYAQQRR

IC50 [1] [µM] | IC50 [2] [µM] | AUC(0-inf) ([7]; intravenous, I.V, 2 mg/kg) [µg·h/mL] | AUC(0-t) ([7]; intravenous, I.V, 2 mg/kg) [µg·h/mL] | clearance ([7]; intravenous, I.V, 2 mg/kg) [L/h/kg] | half-life ([7]; intravenous, I.V, 2 mg/kg) [h] | Vd ([7]; intravenous, I.V, 2 mg/kg) [L/kg] | SMILES | also measured
0.0407 | 0.0393 | – | – | – | – | – | COc1ncc(-c2ccc3ncc4c(=O)[nH]c(=O)n(-c5cccc(C(F)(F)F)c5)c4c3n2)cn1 [Compound 17, 9-(2-methoxypyrimidin-5-yl)-1-(3-(trifluoromethyl)phenyl)pyrimido[5,4-c][1,5]naphthyridine-2,4(1H,3H)-dione] | –
0.0152 | 0.00266 | – | – | – | – | – | Nc1ncc(-c2ccc3ncc4c(=O)[nH]c(=O)n(-c5cccc(C(F)(F)F)c5)c4c3n2)cn1 [Compound 20, 9-(2-aminopyrimidin-5-yl)-1-(3-(trifluoromethyl)phenyl)pyrimido[5,4-c][1,5]naphthyridine-2,4(1H,3H)-dione] | –

More lines, now with the values behind:

SMILES | IC50 [1] [µM] | IC50 [2] [µM] | AUC(0-inf) ([7]; intravenous, I.V, 2 mg/kg) [µg·h/mL] | AUC(0-t) ([7]; intravenous, I.V, 2 mg/kg) [µg·h/mL] | clearance ([7]; intravenous, I.V, 2 mg/kg) [L/h/kg] | half-life ([7]; intravenous, I.V, 2 mg/kg) [h] | Vd ([7]; intravenous, I.V, 2 mg/kg) [L/kg] | also measured
COc1ccc(-c2ccc3ncc4c(=O)[nH]c(=O)n(-c5cccc(C(F)(F)F)c5)c4c3n2)cn1 [Compound 2, 9-(6-methoxypyridin-3-yl)-1-(3-(trifluoromethyl)phenyl)pyrimido[5,4-c][1,5]naphthyridine-2,4(1H,3H)-dione] | 0.079 | 0.057 | – | – | – | – | – | –
Cn1c(=O)c2cnc3ccc(-c4ccc(N)nc4)nc3c2n(-c2cccc(C(F)(F)F)c2)c1=O [Compound 6] | – | – | 4.47 | 4.45 | 0.46 | 3.15 | 1.95 | IC50 [3]: 37.6 nM; IC50 [4]: 89.5 nM; IC50 [5]: 35.8 nM; IC50 [6]: 63.1 nM; bioavailability ([7]; oral, P.O 4 mg/kg vs I.V 2 mg/kg, read-out: F % (absolute bioavailability)): 115%; AUC(0-inf) ([7]; oral, P.O, 4 mg/kg): 10.3 µg·h/mL; AUC(0-t) ([7]; oral, P.O, 4 mg/kg): 10.2 µg·h/mL; Cmax ([7]; oral, P.O, 4 mg/kg): 1.12 µg/mL; Tmax ([7]; oral, P.O, 4 mg/kg): 2 h; half-life ([7]; oral, P.O, 4 mg/kg): 3.92 h
O=c1[nH]c(=O)n(-c2cccc(C(F)(F)F)c2)c2c1cnc1ccc(-c3cnc4[nH]ccc4c3)nc12 [Compound 30 hydrochloride] | – | – | 1.69 | 1.68 | 1.18 | 3.04 | 2.49 | –
